Source: the METLIN SMRT retention time set (Domingo-Almenara et al. 2019)

Assay: gradient 5% acetonitrile 3 min, to 50% in 2 min, to 85% in 15 min, held 3 min, 100 µL/min
Conditions: column: Zorbax Extend-C18 2.1 x 50 mm; eluents: water / acetonitrile, 0.1% formic acid
Summary of the method: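 Pure standards were run in mixtures of ~100 molecules by HPLC coupled to a quadrupole time-of-flight mass spectrometer. The column was a Zorbax Extend-C18 (2.1 × 50 mm, 1.8 μm) at 100 μL/min, with water and acetonitrile each containing 0.1% formic acid, in positive and negative ionization mode. Dead and dwell volumes were 40 μL and 900 μL. Retention time was taken from computationally picked adduct peaks, each manually inspected, with data collected over 3 months.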

| SMILES | RP-LC retention time [s] |
| --- | --- |
| Cc1ccsc1C(=O)N1CCC(Nc2ncnc3c2CCC3)CC1 | 778 |
| Cc1cc(C)c(C)c(S(=O)(=O)Nc2ccc3c(c2)OCO3)c1C | 915 |
| O=C(Nc1ccc(F)cc1)c1nnc(COCC(=O)N2CCN(c3ccccn3)CC2)s1 | 623 |
| Cc1noc(C)c1S(=O)(=O)N1CC(c2nc(Cc3cccnc3)no2)C1 | 588 |
| CCN(CC)S(=O)(=O)c1cc(-c2nc(C(C)(C)C)cs2)cs1 | 1350 |
| O=C(c1ccc(Br)o1)N1CCCC(c2nnc(-c3ccccc3)o2)C1 (stereo not drawn) | 852 |
| CN1CCC(=C2c3ccccc3C(O)c3ccccc32)CC1 (stereo not drawn) | 665 |
| COc1ccc(Cl)cc1NC(=O)NCCCn1c(C(F)(F)F)nc2cccnc21 | 890 |
| COc1ccc(NS(=O)(=O)c2c(C)nn(-c3ccc(-c4ccc(C)cc4)nn3)c2C)cc1F | 999 |
| COc1ccc(-n2ccc(=O)c(-c3nc(-c4ccc(Cl)c(F)c4)no3)n2)cc1 | 993 |
| O=C(NCC(=O)N1CCCc2ccccc21)c1cccc2[nH]ccc12 | 773 |
| CCOC(=O)CC(=O)Nc1nnc(SCc2nnc(-c3ccccc3C)o2)s1 | 817 |
| CCn1ccc2c(cc(C(=O)Nc3cccc(F)c3)n2C)c1=O | 768 |
| O=C1COc2ccc(S(=O)(=O)N3CCC(C(=O)Nc4ccc(C(F)(F)F)cc4)CC3)cc2N1 | 803 |
| O=C(c1ccsc1)N1CCN(Cc2ccc(=O)n(CC3CC3)c2)CC1 | 543 |
| O=C(NCCC1CCN(S(=O)(=O)c2ccc(F)cc2)CC1)Nc1ccc(F)cc1F | 935 |
| CCOC(=O)C1CCN(c2cc3c(cc2NC(=O)CCC2CCCC2)n(C)c(=O)c(=O)n3C)CC1 | 999 |
| CSc1cccc(NC(=O)N2CC=C(c3cn(C)c4ncccc34)CC2)c1 | 873 |
| Cc1oc(-c2[nH]ncc2C(=O)N2CCCC2)cc1S(=O)(=O)Nc1cccc(F)c1 | 704 |
| CCC(C)(C)NS(=O)(=O)c1cc(-c2nc(C)cs2)n(CC(=O)N2CCCC2)c1 | 967 |
| Cc1ccc(C)c(NS(=O)(=O)c2ccc(-c3c(C)noc3C)cc2)c1 | 996 |
| O=C(NCc1ccccc1Br)C1CCCN(c2cnc3nccnc3c2)C1 (stereo not drawn) | 728 |

| SMILES | RP-LC retention time [s] |
| --- | --- |
| O=C(Nc1cnc(-c2cccc(Cl)c2)nc1)c1nccc2ccccc12 | 1370 |
| COc1ccc(-c2noc(CN3N=NC4C(=O)N(c5ccc(F)cc5)C(=O)C43)n2)c(OC)c1 (stereo not drawn) | 1170 |
| O=C(NCc1ccco1)c1nn(-c2ccc(F)cc2)c2ccccc2c1=O | 872 |
| O=C(NCc1ccc2c(c1)OCO2)c1cn2c(n1)CSCC2 | 650 |
| CCCc1nc2cccnc2n1C1CCN(C(=O)Cc2cccs2)C1 (stereo not drawn) | 612 |
| CC(Oc1ccc(=O)n(-c2ccc(F)cc2)n1)C(=O)Nc1cccc(Cl)c1 (stereo not drawn) | 802 |
| O=C([C@@H]1C[C@H](F)CN1S(=O)(=O)c1ccccc1)N1CCCCC1 | 735 |
| O=C(Nc1cccc(C(F)(F)F)c1)NC1(c2nc(C3CC3)no2)CCCCC1 | 1030 |
| O=C(NCC(c1ccc2c(c1)OCO2)N1CCOCC1)C(=O)Nc1ccc(F)cc1F (stereo not drawn) | 675 |
| Cc1ccc(-n2cc3c(N4CCCC(C(=O)NCc5ccc(C)c(C)c5)C4)ncnc3n2)cc1 (stereo not drawn) | 772 |
| Cc1ccc(C)c(N2CCN(c3ccc4cc(S(=O)(=O)N5CCCCC5)ccc4n3)CC2)c1 | 1360 |
| COc1cccc(N2CCN(c3ccnc(SCC(=O)Nc4ccc(F)cc4)n3)CC2)c1 | 768 |
| Cc1ccc(NC(=O)N2CCc3c(c(-c4nc(C)no4)nn3C)C2)cc1 | 750 |
| Cn1ccc2c(cc(C(=O)NCc3cccc(Cl)c3)n2C)c1=O | 724 |
| CCCNC(=O)C1Cc2cc(S(=O)(=O)N3CCCCC3)ccc2N1C(=O)CC (stereo not drawn) | 800 |
| CC1=C(C(=O)Nc2ccc(Cl)cc2C(=O)NC(C)c2ccccc2)SCCO1 (stereo not drawn) | 1190 |
| COc1ccc(OCc2nc(-c3ccc(-c4csc(C5CC5)n4)cc3)no2)cc1 | 1300 |
| Cc1cc(C)cc(C(=O)NCc2ccc(N3CCOCC3)nc2)c1 | 628 |
| CN(C)S(=O)(=O)c1ccc(C(=O)Nc2nc(-c3ccc4c(c3)NC(=O)CO4)cs2)cc1 | 810 |
| CCN(CC)C(=O)c1ccc2c(c1)N(CC(=O)N1CCN(c3ccccn3)CC1)C(=O)CO2 | 574 |
| CN(C)C(=O)c1cccc(COc2ccc(N3C(N)=NC(N)=NC3(C)C)cc2Cl)c1 | 659 |
| CCOC(=O)C1=CN(Cc2ccccc2)C=C(C(=O)OCC)C1c1ccccc1 | 1130 |

| SMILES | RP-LC retention time [s] |
| --- | --- |
| Cc1ccc(S(=O)(=O)[C@H]2CS(=O)(=O)C[C@@H]2N2CCN(c3ccc(F)cc3)CC2)cc1 | 962 |
| CCn1ccc(C(=O)N2CCCC2(CO)Cc2ccccc2)n1 (stereo not drawn) | 790 |
| O=C(NC1CCCC1)N1CC(Oc2cccc(-c3nc(-c4ccccc4)no3)c2)C1 | 1130 |
| Cc1ccc(N2CCN(Cc3nc(-c4ccc(N5CCCC5)nc4)no3)CC2)cc1 | 678 |
| O=C(C1CC1)N1CCC(COCc2ccccc2)CC1 | 831 |
| CCC(=O)NCc1csc(C2CCCN(C(=O)CC(C)(C)C)C2)n1 (stereo not drawn) | 703 |
| Cc1ccc(NC(=O)N2CCC3(CC2)NC(=O)c2cc(F)ccc2N3C)cc1C | 832 |
| COc1ccc(OC)c(NC(=O)c2cc3c(n(-c4ccc(F)cc4)c2=O)CCCC3=O)c1 | 930 |
| O=C(CSCc1ccccc1)NCC1(CO)CC1 | 660 |
| CCc1nc(N2CCC(C(=O)NCc3ccc(OC)cc3OC)CC2)c2c(C)scc2n1 | 706 |
| O=C(c1cnccn1)N1CC(c2nc(-c3cccs3)no2)C1 | 693 |
| O=C(NCc1ccc(F)cc1Cl)C1CCCN(c2nccnc2Sc2ccccc2)C1 (stereo not drawn) | 1100 |
| CCS(=O)(=O)c1ccccc1C(=O)Nc1sc(-c2ccccc2)cc1C(N)=O | 814 |
| CCN1C(=O)c2cccnc2Sc2cc(C(=O)NCc3ccccc3)ccc21 | 780 |
| CCNC(=O)Cc1nnc(-c2ccc(OC)cc2)o1 | 634 |
| CCC(=O)Nc1cccc(-c2noc(C3CCN(C(=O)CCc4c[nH]c5ccccc45)CC3)n2)c1 | 869 |
| COc1ccc(-c2nc3ncccn3c2Nc2ccc(C)c(Cl)c2)cc1 | 821 |
| Cc1cc(C)c2c(-n3cccc3)nn(CC(=O)NCCN(C)C)c2n1 | 630 |
| Cc1nc2c(c(=O)n1CC(=O)NCc1ccccc1Br)CCN(Cc1ccccc1)C2 | 650 |
| O=C(Nc1ccc(Cl)cc1)C1CCCN1S(=O)(=O)c1cccc2nsnc12 (stereo not drawn) | 924 |
| COc1ccc2[nH]cc(CCNC(=O)C3CCN(S(=O)(=O)c4ccc5c(ccn5C)c4)CC3)c2c1 | 851 |
| Cc1cc(Br)ccc1-c1ccc(CNCCO)o1 | 662 |

| SMILES | RP-LC retention time [s] |
| --- | --- |
| Cc1ccccc1-c1nc(Cn2c(C)nc3onc(C)c3c2=O)c(C)o1 | 1120 |
| O=C(Cn1c(C(F)(F)F)nc2cc3c(cc21)OCCO3)Nc1ccccc1 | 867 |
| CCOc1ccc(NC(=O)Cn2c(N3CCOCC3)nc(C)cc2=O)cc1 | 654 |
| CCCNC(=O)c1cccc2c1CCN2C(C)=O | 633 |
| Cc1noc(C)c1S(=O)(=O)N1CC(CN(C)C)C2(CCOCC2)C1 (stereo not drawn) | 600 |
| COc1cccc(NC(=O)C2CC(=O)N(c3ccc4c(c3)CCN4C(=O)C3CCC3)C2)c1 (stereo not drawn) | 817 |
| Cc1c(NC(=O)OC[C@@H]2COCCN2)cn2ncnc(Nc3ccc4c(cnn4Cc4cccc(F)c4)c3)c12 | 674 |
| CCCn1cc(CCNS(=O)(=O)c2ccc(C3CCCCC3)cc2)c2cccnc21 | 1210 |
| Cc1nc2ccn(Cc3ccco3)c(=O)c2cc1C(=O)NCCc1ccco1 | 720 |
| CCCn1cc(C(=O)Nc2ccc3c(c2)OCCO3)c(=O)c2ccc(C)nc21 | 1070 |
| CCN1CCN(S(=O)(=O)c2cc(-c3nnc(-c4ccccc4)o3)ccc2OC)CC1 | 636 |
| Cn1nc(C(=O)N2CCCCC2)c2c1CCN(C(=O)CCC(=O)NCCN1CCCCCC1)C2 | 590 |
| CCOc1ccc(CN2CCN(C(=O)c3ccc(C#N)cc3)CC2)cn1 | 596 |
| Cc1cccc(OCCc2noc(C3CCN(S(=O)(=O)N(C)C)C3)n2)c1 (stereo not drawn) | 978 |
| COCC(=O)N(C1CCOCC1)C1CCN(S(=O)(=O)c2ccccc2C)CC1 | 737 |
| COC(=O)c1c(C)[nH]c(C(=O)N2CCCC(C(=O)N3CCN(c4ccccc4)CC3)C2)c1C (stereo not drawn) | 790 |
| O=C(NCCCN1CCOCC1)C1CCCN(c2nccnc2Sc2ccccc2)C1 (stereo not drawn) | 651 |
| COC(=O)c1ccc(S(=O)(=O)NCc2nc(C)no2)cc1 | 659 |
| Cc1nn(C(C)C(=O)NCCCN(C)Cc2ccccc2)c(=O)c2nn(-c3ccccc3)c(C)c12 (stereo not drawn) | 678 |
| CCOC(=O)CNC(=O)N1CCC(N2CCN(Cc3cccc(C)c3)C2=O)CC1 | 725 |
| CCOc1ccc(CC(=O)Nc2nc(-c3cccs3)cs2)cc1 | 963 |
| CSc1cccc(NC(=O)NC2CCN(c3ccc(F)cc3)C2=O)c1 (stereo not drawn) | 824 |
